Test results as given in ChEMBL document CHEMBL5465560, “Selectivity Literature for EUbOPEN Chemogenomic Library” (2024).

Legend:
[1] = biological target: Mitogen-activated protein kinase 11 (Homo sapiens) (UniProt Q15759); assay: Selectivity interaction (KinomeScan (DiscoverX)) EUB0001049a MAPK11; details: at 1 µM
[2] = biological target: T1, Mitogen-activated protein kinase kinase kinase kinase 3 (Homo sapiens) (UniProt Q8IVH8); assay: Selectivity interaction (KinomeScan (DiscoverX)) EUB0000229b MAP4K3; details: at 10 µM
T1 sequence (whole entry): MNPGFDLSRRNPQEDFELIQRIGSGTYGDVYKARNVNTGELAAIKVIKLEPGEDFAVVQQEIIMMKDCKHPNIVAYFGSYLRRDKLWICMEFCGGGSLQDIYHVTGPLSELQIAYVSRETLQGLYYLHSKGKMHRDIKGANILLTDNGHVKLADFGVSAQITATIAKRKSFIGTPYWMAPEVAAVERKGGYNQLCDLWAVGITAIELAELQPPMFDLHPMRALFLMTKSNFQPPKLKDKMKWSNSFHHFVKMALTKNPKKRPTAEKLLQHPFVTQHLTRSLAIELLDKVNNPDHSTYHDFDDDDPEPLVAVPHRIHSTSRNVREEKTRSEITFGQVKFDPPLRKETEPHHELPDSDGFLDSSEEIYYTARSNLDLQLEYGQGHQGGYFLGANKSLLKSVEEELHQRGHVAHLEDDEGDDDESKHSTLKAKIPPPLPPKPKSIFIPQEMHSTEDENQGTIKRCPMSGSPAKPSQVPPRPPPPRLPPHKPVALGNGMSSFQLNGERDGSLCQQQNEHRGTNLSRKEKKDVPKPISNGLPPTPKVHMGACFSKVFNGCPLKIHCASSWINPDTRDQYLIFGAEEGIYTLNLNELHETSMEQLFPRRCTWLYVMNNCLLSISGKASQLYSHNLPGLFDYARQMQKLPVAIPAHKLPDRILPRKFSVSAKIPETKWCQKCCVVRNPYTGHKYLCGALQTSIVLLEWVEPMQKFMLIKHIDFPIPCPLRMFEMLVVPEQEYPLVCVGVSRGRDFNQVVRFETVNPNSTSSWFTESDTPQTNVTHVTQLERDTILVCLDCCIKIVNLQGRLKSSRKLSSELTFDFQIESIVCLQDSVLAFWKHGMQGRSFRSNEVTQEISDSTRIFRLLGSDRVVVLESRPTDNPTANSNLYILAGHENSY

[3] = biological target: Serine/threonine-protein kinase PAK 3 (Homo sapiens) (UniProt O75914); assay: Selectivity interaction (KinomeScan (DiscoverX)) EUB0001079a PAK3; details: at 1 µM
[4] = biological target: Mitogen-activated protein kinase kinase kinase 1 (Homo sapiens, UniProt Q13233); assay: Selectivity interaction (ActivX KiNativ screen (kinase selectivity in THP-1 cell lysates)) EUB0000639a MAP3K1; type: subcellular; details: lysate
Sequence of Mitogen-activated protein kinase kinase kinase 1 (Q13233 whole entry): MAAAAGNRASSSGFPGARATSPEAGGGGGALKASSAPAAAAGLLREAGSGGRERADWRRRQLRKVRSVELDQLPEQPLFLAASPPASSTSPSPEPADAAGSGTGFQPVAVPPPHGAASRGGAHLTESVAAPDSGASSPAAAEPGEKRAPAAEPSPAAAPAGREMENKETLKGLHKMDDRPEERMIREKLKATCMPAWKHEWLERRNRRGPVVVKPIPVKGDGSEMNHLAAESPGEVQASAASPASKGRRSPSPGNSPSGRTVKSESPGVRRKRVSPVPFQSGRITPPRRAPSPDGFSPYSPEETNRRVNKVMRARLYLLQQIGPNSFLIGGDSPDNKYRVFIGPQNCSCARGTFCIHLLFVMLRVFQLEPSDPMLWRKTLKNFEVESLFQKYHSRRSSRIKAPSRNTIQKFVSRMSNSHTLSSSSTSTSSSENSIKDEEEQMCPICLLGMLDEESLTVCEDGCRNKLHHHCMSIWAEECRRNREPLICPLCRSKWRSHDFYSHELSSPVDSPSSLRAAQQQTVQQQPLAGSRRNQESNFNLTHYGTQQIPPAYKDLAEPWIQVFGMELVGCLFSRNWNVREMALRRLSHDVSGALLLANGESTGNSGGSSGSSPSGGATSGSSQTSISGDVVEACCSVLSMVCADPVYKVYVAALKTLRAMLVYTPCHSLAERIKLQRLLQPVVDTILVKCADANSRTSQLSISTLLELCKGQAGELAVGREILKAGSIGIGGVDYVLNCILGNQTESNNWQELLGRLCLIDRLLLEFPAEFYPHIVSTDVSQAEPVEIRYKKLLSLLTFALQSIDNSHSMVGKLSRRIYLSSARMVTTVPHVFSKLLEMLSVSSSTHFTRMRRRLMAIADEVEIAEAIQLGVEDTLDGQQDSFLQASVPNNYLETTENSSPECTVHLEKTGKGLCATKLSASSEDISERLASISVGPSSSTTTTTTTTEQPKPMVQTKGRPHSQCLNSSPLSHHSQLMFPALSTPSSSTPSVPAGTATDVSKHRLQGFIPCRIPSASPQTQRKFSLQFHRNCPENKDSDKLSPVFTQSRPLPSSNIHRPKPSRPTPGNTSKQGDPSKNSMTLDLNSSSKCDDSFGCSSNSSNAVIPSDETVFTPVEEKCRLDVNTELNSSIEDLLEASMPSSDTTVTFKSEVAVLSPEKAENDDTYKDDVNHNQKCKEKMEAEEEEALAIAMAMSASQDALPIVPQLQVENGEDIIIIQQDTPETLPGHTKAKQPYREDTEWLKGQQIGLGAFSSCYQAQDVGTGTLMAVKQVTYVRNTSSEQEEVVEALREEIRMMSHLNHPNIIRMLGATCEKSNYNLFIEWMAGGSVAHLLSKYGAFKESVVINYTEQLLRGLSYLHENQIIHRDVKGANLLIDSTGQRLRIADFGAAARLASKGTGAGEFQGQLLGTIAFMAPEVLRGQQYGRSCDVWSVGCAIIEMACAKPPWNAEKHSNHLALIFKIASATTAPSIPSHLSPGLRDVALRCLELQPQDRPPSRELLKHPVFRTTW

Misshapen-like kinase 1 = Misshapen-like kinase 1 (Homo sapiens, UniProt Q8N4C8); assay: Selectivity interaction (ActivX KiNativ screen (kinase selectivity in THP-1 cell lysates)) EUB0000639a MINK1; type: subcellular; details: lysate
Sequence of Misshapen-like kinase 1 (Q8N4C8 whole entry, looked up): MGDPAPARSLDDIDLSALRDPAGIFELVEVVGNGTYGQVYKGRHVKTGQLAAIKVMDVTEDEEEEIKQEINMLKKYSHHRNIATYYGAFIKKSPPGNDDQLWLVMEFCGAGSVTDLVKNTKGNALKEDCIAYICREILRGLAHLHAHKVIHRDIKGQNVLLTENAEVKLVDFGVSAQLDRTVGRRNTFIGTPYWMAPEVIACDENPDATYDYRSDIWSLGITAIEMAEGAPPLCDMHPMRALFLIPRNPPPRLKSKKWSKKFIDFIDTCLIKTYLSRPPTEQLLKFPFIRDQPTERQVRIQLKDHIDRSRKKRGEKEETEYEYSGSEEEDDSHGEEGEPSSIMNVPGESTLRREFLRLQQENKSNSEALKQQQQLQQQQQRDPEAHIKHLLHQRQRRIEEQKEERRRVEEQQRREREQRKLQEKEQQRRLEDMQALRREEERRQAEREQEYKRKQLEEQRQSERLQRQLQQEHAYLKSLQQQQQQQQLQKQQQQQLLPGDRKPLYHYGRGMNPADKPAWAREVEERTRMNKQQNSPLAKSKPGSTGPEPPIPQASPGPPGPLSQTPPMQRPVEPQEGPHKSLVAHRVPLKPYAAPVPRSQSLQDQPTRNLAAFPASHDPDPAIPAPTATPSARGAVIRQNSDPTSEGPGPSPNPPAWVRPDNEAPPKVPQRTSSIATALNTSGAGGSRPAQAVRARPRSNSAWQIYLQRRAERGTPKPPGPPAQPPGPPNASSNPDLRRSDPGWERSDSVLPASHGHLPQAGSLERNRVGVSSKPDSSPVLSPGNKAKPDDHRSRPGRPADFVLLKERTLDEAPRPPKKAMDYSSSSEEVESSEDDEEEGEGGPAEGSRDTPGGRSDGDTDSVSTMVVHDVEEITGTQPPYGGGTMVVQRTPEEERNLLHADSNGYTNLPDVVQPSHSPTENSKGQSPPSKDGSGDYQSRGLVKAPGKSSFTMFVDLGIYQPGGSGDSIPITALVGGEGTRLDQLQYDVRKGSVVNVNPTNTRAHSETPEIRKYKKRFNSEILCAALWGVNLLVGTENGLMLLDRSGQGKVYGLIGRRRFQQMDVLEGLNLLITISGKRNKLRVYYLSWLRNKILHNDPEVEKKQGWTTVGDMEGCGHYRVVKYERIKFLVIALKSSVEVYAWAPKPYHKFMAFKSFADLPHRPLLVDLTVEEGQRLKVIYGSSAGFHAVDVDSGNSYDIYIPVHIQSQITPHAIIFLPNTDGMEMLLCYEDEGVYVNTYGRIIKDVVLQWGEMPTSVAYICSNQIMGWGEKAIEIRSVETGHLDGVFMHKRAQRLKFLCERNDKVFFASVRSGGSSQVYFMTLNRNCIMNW

[5] = system: Epidermal growth factor receptor (Homo sapiens), P00533 [G719C]; assay: (§1) Selectivity interaction (KinomeScan (DiscoverX)) EUB0000045b EGFR
[6] = system: Epidermal growth factor receptor (Homo sapiens), P00533 [G719S]; assay: as §1
[7] = system: Epidermal growth factor receptor (Homo sapiens), P00533 [L858R,T790M]; assay: as §1
[8] = system: Epidermal growth factor receptor (Homo sapiens), P00533 [L858R]; assay: as §1
[9] = system: Epidermal growth factor receptor (Homo sapiens), P00533 [L861Q]; assay: as §1
Sequence of Epidermal growth factor receptor (Homo sapiens), P00533 [L861Q] (P00533 whole entry L861Q): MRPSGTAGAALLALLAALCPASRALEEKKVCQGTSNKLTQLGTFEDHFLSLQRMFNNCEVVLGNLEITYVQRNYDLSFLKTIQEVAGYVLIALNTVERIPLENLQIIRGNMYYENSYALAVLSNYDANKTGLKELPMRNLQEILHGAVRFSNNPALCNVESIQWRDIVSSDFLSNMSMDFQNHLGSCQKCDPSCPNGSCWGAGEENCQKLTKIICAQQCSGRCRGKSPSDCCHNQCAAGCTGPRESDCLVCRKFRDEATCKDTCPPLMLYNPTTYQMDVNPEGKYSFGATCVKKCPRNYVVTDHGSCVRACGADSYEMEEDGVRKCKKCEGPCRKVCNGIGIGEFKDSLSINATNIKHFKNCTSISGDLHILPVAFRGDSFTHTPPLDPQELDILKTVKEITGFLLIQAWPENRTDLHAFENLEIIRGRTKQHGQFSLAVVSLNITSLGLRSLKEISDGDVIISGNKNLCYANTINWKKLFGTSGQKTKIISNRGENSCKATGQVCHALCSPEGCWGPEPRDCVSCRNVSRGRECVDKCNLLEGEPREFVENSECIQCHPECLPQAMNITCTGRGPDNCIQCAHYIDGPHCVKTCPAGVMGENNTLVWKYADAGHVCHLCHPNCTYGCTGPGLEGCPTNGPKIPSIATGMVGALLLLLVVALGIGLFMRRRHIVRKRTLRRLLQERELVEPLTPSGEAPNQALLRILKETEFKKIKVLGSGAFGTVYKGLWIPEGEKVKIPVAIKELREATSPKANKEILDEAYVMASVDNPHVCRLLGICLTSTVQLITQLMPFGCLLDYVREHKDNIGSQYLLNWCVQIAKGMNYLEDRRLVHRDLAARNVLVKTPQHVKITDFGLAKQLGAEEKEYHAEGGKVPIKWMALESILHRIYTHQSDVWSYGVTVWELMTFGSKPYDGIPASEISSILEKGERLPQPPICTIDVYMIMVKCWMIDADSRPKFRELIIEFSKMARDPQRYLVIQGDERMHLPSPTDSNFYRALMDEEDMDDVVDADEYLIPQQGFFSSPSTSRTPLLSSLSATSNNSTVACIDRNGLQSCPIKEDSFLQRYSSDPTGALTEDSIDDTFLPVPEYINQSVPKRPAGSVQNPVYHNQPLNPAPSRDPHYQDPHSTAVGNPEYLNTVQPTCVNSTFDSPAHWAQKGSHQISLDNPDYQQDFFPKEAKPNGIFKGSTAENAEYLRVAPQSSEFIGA

[10] = system: Epidermal growth factor receptor (Homo sapiens), P00533 [T790M]; assay: as §1
[11] = system: Epidermal growth factor receptor (Homo sapiens), P00533 [UNDEFINED MUTATION]; assay: as §1
[12] = biological target: Epidermal growth factor receptor (Homo sapiens, UniProt P00533); assay: as §1
[13] = biological target: T2, Protein kinase C epsilon type (Homo sapiens) (UniProt Q02156); assay: Selectivity interaction (KinomeScan (DiscoverX)) EUB0000618a PRKCE; details: at 10 µM
T2 sequence (whole entry): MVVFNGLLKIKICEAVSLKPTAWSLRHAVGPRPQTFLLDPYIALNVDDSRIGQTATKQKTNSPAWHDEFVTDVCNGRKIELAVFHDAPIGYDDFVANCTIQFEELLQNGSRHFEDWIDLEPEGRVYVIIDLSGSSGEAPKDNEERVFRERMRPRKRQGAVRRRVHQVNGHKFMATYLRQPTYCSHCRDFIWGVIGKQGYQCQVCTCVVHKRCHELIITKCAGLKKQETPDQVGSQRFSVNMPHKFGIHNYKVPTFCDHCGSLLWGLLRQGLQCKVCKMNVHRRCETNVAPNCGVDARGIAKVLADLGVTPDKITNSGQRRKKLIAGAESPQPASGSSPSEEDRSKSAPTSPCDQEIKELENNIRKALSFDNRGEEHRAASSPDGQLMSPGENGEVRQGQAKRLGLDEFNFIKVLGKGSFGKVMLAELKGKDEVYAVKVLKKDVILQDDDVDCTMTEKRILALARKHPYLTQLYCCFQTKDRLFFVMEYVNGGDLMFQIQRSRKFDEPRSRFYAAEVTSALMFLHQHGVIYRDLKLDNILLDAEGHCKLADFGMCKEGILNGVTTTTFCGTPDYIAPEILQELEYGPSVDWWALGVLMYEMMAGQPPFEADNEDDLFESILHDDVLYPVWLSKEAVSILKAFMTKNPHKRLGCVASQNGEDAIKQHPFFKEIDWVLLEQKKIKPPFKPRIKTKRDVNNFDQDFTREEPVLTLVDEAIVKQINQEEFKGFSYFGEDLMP

[14] = biological target: Mitogen-activated protein kinase kinase kinase 20 (Homo sapiens) (UniProt Q9NYL2); assay: Selectivity interaction (KinomeScan (DiscoverX)) EUB0000618a MAP3K20; details: at 10 µM
[15] = biological target: STE20-like serine/threonine-protein kinase (Homo sapiens, UniProt Q9H2G2); assay: Selectivity interaction (KinomeScan (DiscoverX)) EUB0000618a SLK; details: at 10 µM
[16] = biological target: Calcium/calmodulin-dependent protein kinase type II subunit beta (Homo sapiens) (UniProt Q13554); assay: Selectivity interaction (ProQinase) EUB0000171b CAMK2B
Sequence of Calcium/calmodulin-dependent protein kinase type II subunit beta (Homo sapiens) (Q13554 whole entry): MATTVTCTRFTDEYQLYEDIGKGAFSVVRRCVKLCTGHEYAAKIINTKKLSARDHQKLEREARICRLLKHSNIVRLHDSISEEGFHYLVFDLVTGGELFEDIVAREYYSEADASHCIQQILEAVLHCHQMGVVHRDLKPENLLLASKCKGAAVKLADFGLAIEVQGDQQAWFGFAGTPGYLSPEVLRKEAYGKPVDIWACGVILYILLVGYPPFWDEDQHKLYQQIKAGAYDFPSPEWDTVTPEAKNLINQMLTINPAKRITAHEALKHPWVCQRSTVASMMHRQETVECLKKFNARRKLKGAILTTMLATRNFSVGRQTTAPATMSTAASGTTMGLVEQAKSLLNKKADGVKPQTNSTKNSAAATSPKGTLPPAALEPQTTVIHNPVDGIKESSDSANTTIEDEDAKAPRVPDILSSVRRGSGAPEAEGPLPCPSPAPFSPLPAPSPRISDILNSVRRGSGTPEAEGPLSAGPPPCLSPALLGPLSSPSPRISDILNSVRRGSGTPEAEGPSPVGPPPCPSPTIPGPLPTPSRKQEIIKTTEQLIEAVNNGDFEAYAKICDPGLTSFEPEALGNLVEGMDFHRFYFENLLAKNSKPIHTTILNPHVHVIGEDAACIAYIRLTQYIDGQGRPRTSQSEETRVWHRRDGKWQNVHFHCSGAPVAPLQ

Sequence of Mitogen-activated protein kinase 11 (Homo sapiens) (Q15759 whole entry): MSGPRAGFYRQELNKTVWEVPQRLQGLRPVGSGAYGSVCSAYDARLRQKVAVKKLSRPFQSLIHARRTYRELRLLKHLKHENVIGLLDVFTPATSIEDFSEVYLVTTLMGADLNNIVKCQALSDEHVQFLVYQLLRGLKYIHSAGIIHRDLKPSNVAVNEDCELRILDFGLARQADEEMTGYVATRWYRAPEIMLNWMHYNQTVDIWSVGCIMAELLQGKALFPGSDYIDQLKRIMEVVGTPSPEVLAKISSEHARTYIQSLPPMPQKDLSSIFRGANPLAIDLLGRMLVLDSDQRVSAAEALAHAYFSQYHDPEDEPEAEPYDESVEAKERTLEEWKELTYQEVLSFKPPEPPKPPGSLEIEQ

COc1cc(Nc2nc(C)cc(-c3cnn4nc(OC)ccc34)n2)cc(C(F)(F)F)c1
% of control [1]: 100%

COc1cc(N(C)c2ccnc3ccc(C(F)(F)F)cc23)cc(OC)c1OC
% binding [2]: 87%

Nc1cnc(N2CCc3cc(S(=O)(=O)Nc4c(F)cc(Cl)cc4F)cc(N4CCCC4=O)c32)nc1 [TP-020n]
% of control [3]: 100%

CC[C@@H]1[C@H](F)C(=O)N[C@@H]1COc1nccc2cc(C(N)=O)c(OC)cc12 [ZIMLOVISERTIB]
% of inhibition ([4]; at 0.01 µM): 9.7% | % of inhibition ([4]; at 0.04 µM): -2.5% | % of inhibition ([4]; at 0.2 µM): -19.5% | % of inhibition ([4]; at 1 µM): -13.4% | % of inhibition ([4]; at 5 µM): 3.7% | % of inhibition (Misshapen-like kinase 1; at 0.01 µM): -5.5% | % of inhibition (Misshapen-like kinase 1; at 0.04 µM): -1.7% | % of inhibition (Misshapen-like kinase 1; at 0.2 µM): -13.9% | % of inhibition (Misshapen-like kinase 1; at 1 µM): -2.7% | % of inhibition (Misshapen-like kinase 1; at 5 µM): 3.1%

C=CC(=O)Nc1cc(-n2c(=O)ccc3cnc4ccc(-c5ccc(NS(C)(=O)=O)cc5)cc4c32)ccc1C
% of control ([5]; at 1 µM): 73% | % of control ([5]; at 10 µM): 90% | % of control ([6]; at 1 µM): 90% | % of control ([6]; at 10 µM): 85% | % of control ([7]; at 1 µM): 100% | % of control ([7]; at 10 µM): 44% | % of control ([8]; at 1 µM): 95% | % of control ([8]; at 10 µM): 50% | % of control ([9]; at 1 µM): 40% | % of control ([9]; at 10 µM): 45% | % of control ([10]; at 1 µM): 11% | % of control ([10]; at 10 µM): 2.1% | % of control ([11]; at 1 µM): 100% | % of control ([11]; at 10 µM): 32% | % of control ([12]; at 1 µM): 82% | % of control ([12]; at 10 µM): 25%

O[C@H]1CC[C@H](Nc2ncc3nc(Nc4c(F)cc(F)cc4F)n([C@H]4CCOC4)c3n2)CC1
% of control [13]: 98% | % of control [14]: 100% | % of control [15]: 88%

C=CC(=O)Nc1cccc(C(=O)Nc2ccc(Nc3cc(-c4[nH]c(SC)nc4C)ccn3)cc2)c1
% of control ([16]; at 1 µM): 97% | % of control ([16]; at 5 µM): 79%
